# Laboratory results from US20120029018A1, “9-SUBSTITUTED PHENANTHRENE BASED TYLOPHORINE DERIVATIVES” (priority 2008, published 2012).
# Where “and” joins values, the source holds several entries; their conditions need not be identical. Equal values may be shown once.
# Legend:
# KB (nasopharyngeal) = assay: In vitro anticancer activity against KB cells; format: cell-based, human; conditions: for IC50 KB: KB cells
# [1] = system: KB-VIN (an MDR KB subline); assay: In vitro anticancer activity against KB-VIN cells; format: cell-based, human; conditions: for IC50 KBvin: KBvin cells
# A549 (lung) = assay: In vitro anticancer activity against A549 cells; format: cell-based, human; conditions: for IC50 A549: A549 cells
# DU-145 (prostate) = assay: In vitro anticancer activity against DU-145 cells; format: cell-based, human; conditions: for IC50 DU145: DU145 cells
# CL1-0 = assay: Cell cycle distribution in CL1-0 cells; format: cell-based; as to G1 (%): test concentration or dose not given here; as to G2/M (%): test concentration or dose not given here; as to S (%): test concentration or dose not given here
# From the text: (§1) The reciprocal recruitment of RelA and RelB on COX-2 promoter region led to the downregulation of transcriptional activity. […] PBT-1 may be a good drug candidate for anticancer chemotherapy.
# lung cancer cells = assay: Colony formation of lung cancer cells in vitro; format: cell-based; conditions: FIG. 1, listed as PBT-1
# From the text: as §1
# [2] = system: Akt activation, RelA (p65), NF-κB target genes; assay: Akt / NF-κB signaling (gels, FIG. 2); format: cell-based
# From the text: as §1
# [3] = system: apoptosis pathway, MAPK signaling, NF-κB pathway, focal adhesion; assay: DNA microarray and pathway analysis; format: cell-based
# From the text: as §1
# [4] = system: cyclin B1 and cyclin D1 protein; assay: Cyclin protein levels; format: cell-based
# From the text: as §1
# [5] = system: panel of human tumor cell lines including KB, A549, DU-145 and KB-VIN; conditions: four human cancer cell lines including MDR KB-VIN; previous research (refs 6,7); read-out: IC50 against four types of human cancer cell lines; cited from earlier work
# [6] = system: panel of human tumor cell lines including KB, A549, DU-145 and KB-VIN; assay: In vitro anticancer activity, panel as a whole; format: cell-based; conditions: for IC50 values across the panel: summary of Table 1
compound,measurement,setting,value
COc1ccc2c(CN3CCCC(CN)C3)cc3cc4c(cc3c2c1)OCO4.Cl.Cl (racemic) [Compound 7],IC50 KB,KB (nasopharyngeal),0.33 µg/mL
same,IC50 KBvin,[1],0.38 µg/mL
same,IC50 A549,A549 (lung),0.28 µg/mL
same,IC50 DU145,DU-145 (prostate),0.37 µg/mL
COc1ccc2c(CN3CCCC(CNC(=O)OC(C)(C)C)C3)cc3cc4c(cc3c2c1)OCO4 (racemic) [Compound 8],IC50 KB,KB (nasopharyngeal),0.53 µg/mL
same,IC50 KBvin,[1],0.62 µg/mL
same,IC50 A549,A549 (lung),0.57 µg/mL
same,IC50 DU145,DU-145 (prostate),0.52 µg/mL
COC(=O)C1CN(Cc2cc3cc4c(cc3c3cc(OC)ccc23)OCO4)CCC1=O (racemic) [Compound 16],IC50 KB,KB (nasopharyngeal),0.53 µg/mL
same,IC50 KBvin,[1],0.83 µg/mL
same,IC50 A549,A549 (lung),0.58 µg/mL
same,IC50 DU145,DU-145 (prostate),0.78 µg/mL
COc1ccc2c(CN3CCC(CO)CC3)cc3cc4c(cc3c2c1)OCO4 [Compound 1],IC50,"KB (nasopharyngeal); Homo sapiens, KB, read-out: IC50 KB",0.07 µg/mL
same,IC50,"[1]; Homo sapiens, KBVIN, read-out: IC50 KBvin",0.08 µg/mL
same,IC50,"A549 (lung); Homo sapiens, A549, read-out: IC50 A549",0.07 µg/mL
same,IC50,"DU-145 (prostate); Homo sapiens, DU-145, read-out: IC50 DU145",0.09 µg/mL
same,G1 (%),"CL1-0; CL1-0, 2 Hr.",53.7%
same,G2/M (%),"CL1-0; CL1-0, 2 Hr.",25.4%
same,S (%),"CL1-0; CL1-0, 2 Hr.",15.1%
same,G1 (%),"CL1-0; CL1-0, 6 Hr.",52.5%
same,G2/M (%),"CL1-0; CL1-0, 6 Hr.",24.3%
same,S (%),"CL1-0; CL1-0, 6 Hr.",15.8%
same,G1 (%),"CL1-0; CL1-0, 12 Hr.",41.7%
same,G2/M (%),"CL1-0; CL1-0, 12 Hr.",27.0%
same,S (%),"CL1-0; CL1-0, 12 Hr.",23.9%
same,G1 (%),"CL1-0; CL1-0, 16 Hr.",20.4%
same,G2/M (%),"CL1-0; CL1-0, 16 Hr.",33.6%
same,S (%),"CL1-0; CL1-0, 16 Hr.",34.1%
same,G1 (%),"CL1-0; CL1-0, 24 Hr.",16.6%
same,G2/M (%),"CL1-0; CL1-0, 24 Hr.",20.9%
same,S (%),"CL1-0; CL1-0, 24 Hr.",43.8%
same,cell cycle arrest and apoptosis,CL1-0; Table 2,induced cell cycle G2/M arrest and apoptosis
same,colony formation of lung cancer cells,lung cancer cells,significantly suppressed colony formation
same,Akt activation,[2],suppress Akt activation
same,expressions of NF-κB target genes,[2],downregulate the expressions of NF-κB target genes
same,RelA (p65) degradation,[2]; via IκB kinase-α,accelerate RelA (p65) degradation
same,pathways activated,[3],activated the apoptosis pathway and mitogen-activated protein kinase signaling
same,pathways suppressed,[3],suppressed the nuclear factor kappaB (NF-κB) pathway and focal adhesion
same,cyclin B1 and cyclin D1 protein level,[4],accumulation in dose- and time-dependent manners
same,IC50,[5],~80 nM
COc1ccc2c(CN3CCCC(NC(=O)OC(C)(C)C)C3)cc3cc4c(cc3c2c1)OCO4 (stereo not drawn) [Compound 9],IC50 KB,KB (nasopharyngeal),6.43 µg/mL
same,IC50 KBvin,[1],8.40 µg/mL
same,IC50 A549,A549 (lung),6.77 µg/mL
same,IC50 DU145,DU-145 (prostate),8.00 µg/mL
COc1ccc2c(CN3CCCC(N)C3)cc3cc4c(cc3c2c1)OCO4.Cl.Cl (stereo not drawn) [Compound 10],IC50 KB,KB (nasopharyngeal),3.80 µg/mL
same,IC50 KBvin,[1],3.88 µg/mL
same,IC50 A549,A549 (lung),3.85 µg/mL
same,IC50 DU145,DU-145 (prostate),4.20 µg/mL
COc1ccc2c(CN3CCC(NC(=O)OC(C)(C)C)CC3)cc3cc4c(cc3c2c1)OCO4 [Compound 11],IC50 KB,KB (nasopharyngeal),0.40 µg/mL
same,IC50 KBvin,[1],0.49 µg/mL
same,IC50 A549,A549 (lung),0.41 µg/mL
same,IC50 DU145,DU-145 (prostate),0.43 µg/mL
COc1ccc2c(CN3CCC(N)CC3)cc3cc4c(cc3c2c1)OCO4.Cl.Cl [Compound 12],IC50 KB,KB (nasopharyngeal),0.24 µg/mL
same,IC50 KBvin,[1],0.29 µg/mL
same,IC50 A549,A549 (lung),0.16 µg/mL
same,IC50 DU145,DU-145 (prostate),0.34 µg/mL
COc1ccc2c(CN3CCC(C(F)(F)F)CC3)cc3cc4c(cc3c2c1)OCO4 [Compound 13],IC50 KB,KB (nasopharyngeal),3.88 µg/mL
same,IC50 KBvin,[1],3.12 µg/mL
same,IC50 A549,A549 (lung),2.74 µg/mL
same,IC50 DU145,DU-145 (prostate),5.24 µg/mL
COc1ccc2c(CN3CCC(C#N)CC3)cc3cc4c(cc3c2c1)OCO4 [Compound 14],IC50 KB,KB (nasopharyngeal),0.42 µg/mL
same,IC50 KBvin,[1],0.43 µg/mL
same,IC50 A549,A549 (lung),0.33 µg/mL
same,IC50 DU145,DU-145 (prostate),0.41 µg/mL
COc1ccc2c(CN3CCC(=O)CC3)cc3cc4c(cc3c2c1)OCO4 [Compound 15],IC50 KB,KB (nasopharyngeal),0.04 µg/mL
same,IC50 KBvin,[1],0.05 µg/mL
same,IC50 A549,A549 (lung),0.04 µg/mL
same,IC50 DU145,DU-145 (prostate),0.04 µg/mL
same,IC50 values across the panel,[6],~0.04 µg/mL
COc1ccc2c(CN3CCC(NS(C)(=O)=O)CC3)cc3cc4c(cc3c2c1)OCO4 [Compound 17],IC50 KB,KB (nasopharyngeal),0.29 µg/mL
same,IC50 KBvin,[1],0.48 µg/mL
same,IC50 A549,A549 (lung),0.45 µg/mL
same,IC50 DU145,DU-145 (prostate),0.45 µg/mL
COC(=O)C1CCCN(Cc2cc3cc4c(cc3c3cc(OC)ccc23)OCO4)C1 (stereo not drawn) [Compound 18],IC50 KB,KB (nasopharyngeal),0.79 µg/mL
same,IC50 KBvin,[1],1.24 µg/mL
same,IC50 A549,A549 (lung),0.76 µg/mL
same,IC50 DU145,DU-145 (prostate),1.09 µg/mL
COC(=O)C1CCCN(Cc2cc3cc4c(cc3c3cc(OC)ccc23)OCO4)C1 (stereo not drawn) [Compound 19],IC50 KB,KB (nasopharyngeal),0.53 µg/mL
same,IC50 KBvin,[1],0.58 µg/mL
same,IC50 A549,A549 (lung),0.53 µg/mL
same,IC50 DU145,DU-145 (prostate),0.61 µg/mL
COc1ccc2c(CN3CCC(CN)CC3)cc3cc4c(cc3c2c1)OCO4.Cl.Cl [Compound 20],IC50 KB,KB (nasopharyngeal),0.12 µg/mL
same,IC50 A549,A549 (lung),0.22 µg/mL
same,IC50 DU145,DU-145 (prostate),0.16 µg/mL
COc1ccc2c(CN3CCC(O)CC3)cc3cc4c(cc3c2c1)OCO4 [Compound 21],IC50 KB,KB (nasopharyngeal),0.03 µg/mL
same,IC50 A549,A549 (lung),0.03 µg/mL
same,IC50 DU145,DU-145 (prostate),0.04 µg/mL
same,IC50 values across the panel,[6],~0.04 µg/mL and 0.03 to 0.04 µg/mL
same,fold more active compared with compound 1,[6]; vs compound 1,about 2 fold
COc1ccc2c(CN3CCCC(=O)C3)cc3cc4c(cc3c2c1)OCO4 [Compound 22],IC50 KB,KB (nasopharyngeal),0.30 µg/mL
same,IC50 A549,A549 (lung),0.29 µg/mL
same,IC50 DU145,DU-145 (prostate),0.39 µg/mL
same,"decrease of inhibitory potency, oxo group at C-3′ (15 vs. 22)",[6]; vs compound 15,about 8 fold
COc1ccc2c(CN3CCCC(CO)C3)cc3cc4c(cc3c2c1)OCO4 (stereo not drawn) [Compound 23],IC50 KB,KB (nasopharyngeal),0.07 µg/mL
same,IC50 A549,A549 (lung),0.05 µg/mL
same,IC50 DU145,DU-145 (prostate),0.06 µg/mL
COc1ccc2c(CN3CCCC(CO)C3)cc3cc4c(cc3c2c1)OCO4 (stereo not drawn) [Compound 24],IC50 KB,KB (nasopharyngeal),0.07 µg/mL
same,IC50 A549,A549 (lung),0.07 µg/mL
same,IC50 DU145,DU-145 (prostate),0.10 µg/mL
COc1ccc2c(CN3CCC(CNC(=O)OC(C)(C)C)CC3)cc3cc4c(cc3c2c1)OCO4 [Compound 25],IC50 KB,KB (nasopharyngeal),0.43 µg/mL
same,IC50 A549,A549 (lung),0.27 µg/mL
same,IC50 DU145,DU-145 (prostate),0.40 µg/mL
